Test results taken from patent US12016852B2, “Pyrrolidine glycosidase inhibitors” (Asceneuron SA, priority 2018, dated 2024).

Biological target: T1, Human O-GlcNAcase (His-Tagged hOGA) (Homo sapiens, UniProt O60502)
T1 sequence (O60502 1-916): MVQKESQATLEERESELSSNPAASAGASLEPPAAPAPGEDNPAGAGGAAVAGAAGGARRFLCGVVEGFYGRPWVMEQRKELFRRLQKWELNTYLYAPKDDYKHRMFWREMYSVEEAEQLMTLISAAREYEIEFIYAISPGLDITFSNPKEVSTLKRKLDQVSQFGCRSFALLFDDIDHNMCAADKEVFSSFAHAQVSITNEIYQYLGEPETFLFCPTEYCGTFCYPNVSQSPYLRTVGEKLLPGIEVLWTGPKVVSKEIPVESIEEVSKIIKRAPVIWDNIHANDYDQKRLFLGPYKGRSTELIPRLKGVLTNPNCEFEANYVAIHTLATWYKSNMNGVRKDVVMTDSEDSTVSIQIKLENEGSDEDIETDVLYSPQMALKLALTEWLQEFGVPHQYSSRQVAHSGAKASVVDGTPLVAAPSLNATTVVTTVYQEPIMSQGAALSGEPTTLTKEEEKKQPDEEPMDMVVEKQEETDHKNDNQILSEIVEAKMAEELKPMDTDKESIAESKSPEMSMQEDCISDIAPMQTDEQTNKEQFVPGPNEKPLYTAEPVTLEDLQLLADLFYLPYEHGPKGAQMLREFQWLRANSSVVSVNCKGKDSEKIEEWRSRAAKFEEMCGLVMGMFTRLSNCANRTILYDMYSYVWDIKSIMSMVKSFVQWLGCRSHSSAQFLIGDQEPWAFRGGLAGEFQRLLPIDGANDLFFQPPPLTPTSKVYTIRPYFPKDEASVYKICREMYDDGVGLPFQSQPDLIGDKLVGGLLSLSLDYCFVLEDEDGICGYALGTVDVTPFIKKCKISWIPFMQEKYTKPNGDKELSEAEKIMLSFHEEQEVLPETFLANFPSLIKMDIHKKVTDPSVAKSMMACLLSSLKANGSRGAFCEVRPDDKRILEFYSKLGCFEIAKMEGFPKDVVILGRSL
Test: Human O-GlcNAcase enzyme inhibition assay
Assay type: biochemical
Conditions: 20 nM His-Tagged hOGA, 10 μM FL-GlcNAc, McIlvaine's Buffer pH 6.5, 60 min at room temperature, fluorescence; read-out: OGA IC50
Experimental: Example B01: Human O-GlcNAcase Enzyme Inhibition Assay
5 μl of the appropriate concentration of a solution of inhibitor in Mcllvaine's Buffer (pH 6.5) in 2% DMSO (for a dose response curve calculation) is added into each well of a 384-well plate (Greiner, 781900). Then, 20 nM of His-Tagged hOGA and 10 μM of FL-GlcNAc (Fluorescein mono-beta-D-(2-deoxy-2-N-acetyl) glucopyranoside; Marker Gene Technologies Inc, M1485) were added to the 384-well plate for a final volume of 20 μl. After incubation for 60 min at room temperature, the reaction was terminated by the addition of 10 μL of stop buffer (200 mM glycine, pH 10.75). The level of fluorescence (λexc 485 nm; (λemm 520 nm) was read on a PHERAstar machine. The amount of fluorescence measured was plotted against the concentration of inhibitor to produce a sigmoidal dose response curve to calculate an IC50. All individual data was corrected by subtraction of the background (Thiamet 3 uM=100% inhibition) whilst 0.5% DMSO was considered as the control value (no inhibition).

Row | Compound | IC50 [nM]
1 | CS(=O)(=O)c1ccc(CN2CCCC2c2ccc3c(c2)OCCO3)cc1 (racemic) [Example 8, 2-(2,3-dihydrobenzo[b] [1,4]dioxin-6-yl)-1-(4-(methylsulfonyl)benzyl) pyrrolidine] | 200 to 1000
2 | c1ccc(-c2ccc(CN3CCCC3c3ccc4c(c3)OCCO4)cc2)cc1 (racemic) [Example 9, 1-([1,1′-biphenyl]-4-ylmethyl)-2-(2,3-dihydrobenzo[b] [1,4]dioxin-6-yl)pyrrolidine] | 200 to 1000
3 | CS(=O)(=O)c1ccc(CN2CCCC2c2ccc3c(c2)OCC3)cc1 (racemic) [Example 10, 2-(2,3-dihydrobenzofuran-6-yl)-1-(4-(methylsulfonyl)benzyl)pyrrolidine] | 200 to 1000
4 | CS(=O)(=O)c1ccc(-c2ccc(CN3CCCC3c3ccc4c(c3)OCCO4)nc2)cc1 (racemic) [Example 14, 2-((2-(2,3-dihydrobenzo[b] [1,4]dioxin-6-yl)pyrrolidin-1-yl)methyl)-5-(4-(methylsulfonyl)phenyl)pyridine] | 200 to 1000
5 | c1cnc2ccc(CN3CCCC3c3ccc4c(c3)OCCO4)cc2c1 (racemic) [Example 19, 6-((2-(2,3-dihydrobenzo[b] [1,4]dioxin-6-yl)pyrrolidin-1-yl)methyl)quinoline] | 200 to 1000
6 | Cn1ncc2cc(CN3CCCC3c3ccc4c(c3)OCCO4)ccc21 (racemic) [Example 20, 5-((2-(2,3-dihydrobenzo[b] [1,4]dioxin-6-yl)pyrrolidin-1-yl)methyl)-1-methyl-1H-indazole] | 200 to 1000
7 | Cn1cc(-c2cccc(CN3CCCC3c3ccc4c(c3)OCCO4)c2)cn1 (racemic) [Example 21, 4-(3-((2-(2,3-dihydrobenzo[b] [1,4]dioxin-6-yl)pyrrolidin-1-yl)methyl)phenyl)-1-methyl-1H-Pyrazole] | 200 to 1000
8 | c1ccc(-c2ccc(CN3CCCC3c3ccc4c(c3)OCC4)cc2)cc1 (racemic) [Example 22, 1-([1,1′-biphenyl]-4-ylmethyl)-2-(2,3-dihydrobenzofuran-6-yl)pyrrolidine] | 200 to 1000
9 | c1cc(N2CCOCC2)ccc1CN1CCCC1c1ccc2c(c1)OCCO2 (racemic) [Example 23, 4-(4-((2-(2,3-dihydrobenzo[b] [1,4]dioxin-6-yl)pyrrolidin-1-yl)methyl)phenyl)morpholine] | 200 to 1000
10 | c1cc(N2CCOCC2)ccc1CN1CCCC1c1ccc2c(c1)OCC2 (racemic) [Example 24, 4-(4-((2-(2,3-dihydrobenzofuran-6-yl)pyrrolidin-1-yl)methyl)phenyl)morpholine] | 200 to 1000
11 | c1ccc2ncc(CN3CCCC3c3ccc4c(c3)OCCO4)cc2c1 (racemic) [Example 26, 3-((2-(2,3-dihydrobenzo[b] [1,4]dioxin-6-yl)pyrrolidin-1-yl)methyl)quinoline] | 200 to 1000
12 | c1cc(N2CCSCC2)ccc1CN1CCCC1c1ccc2c(c1)OCCO2 (racemic) [Example 28, 4-(4-((2-(2,3-dihydrobenzo[b] [1,4]dioxin-6-yl)pyrrolidin-1-yl)methyl) Phenyl) thiomorpholine] | 200 to 1000
13 | c1ccc(-c2ccc(CN3CCCC3c3ccc4c(c3)OCCO4)cc2)nc1 (racemic) [Example 29, 2-(4-((2-(2,3-dihydrobenzo[b] [1,4]dioxin-6-yl)pyrrolidin-1-yl)methyl)phenyl)pyridine] | 200 to 1000
14 | Clc1cc(-c2cccnc2)ccc1CN1CCCC1c1ccc2c(c1)OCCO2 (racemic) [Example 31, 3-(3-chloro-4-((2-(2,3-dihydrobenzo[b] [1,4]dioxin-6-yl)pyrrolidin-1-yl)methyl)phenyl)pyridine] | 200 to 1000
15 | c1cnc(N2CCC(CN3CCCC3c3ccc4c(c3)OCCO4)CC2)nc1 (racemic) [Example 35, 2-(4-((2-(2,3-dihydrobenzo[b] [1,4]dioxin-6-yl)pyrrolidin-1-yl)methyl)piperidin-1-yl)pyrimidine] | 200 to 1000
16 | CS(=O)(=O)N1CCN(c2ccc(CN3CCCC3c3ccc4c(c3)OCCO4)cc2)CC1 (racemic) [Example 36, 1-(4-((2-(2,3-dihydrobenzo[b] [1,4]dioxin-6-yl)pyrrolidin-1-yl)methyl)phenyl)-4-(methylsulfonyl)piperazine] | 200 to 1000
17 | CC(=O)N1CCN(c2ccc(CN3CCCC3c3ccc4c(c3)OCCO4)cc2)CC1 (racemic) [Example 37, 1-(4-(4-((2-(2,3-dihydrobenzo[b] [1,4]dioxin-6-yl)pyrrolidin-1-yl)methyl)phenyl)piperazin-1-yl)ethan-1-one] | 200 to 1000
18 | Fc1cc(-c2ccccn2)ccc1CN1CCCC1c1ccc2c(c1)OCCO2 (racemic) [Example 41, 2-(4-((2-(2,3-dihydrobenzo[b] [1,4]dioxin-6-yl)pyrrolidin-1-yl)methyl)-3-fluorophenyl)pyridine] | 200 to 1000
19 | Clc1cc(-c2ccccn2)ccc1CN1CCCC1c1ccc2c(c1)OCCO2 (racemic) [Example 43, (3-chloro-4-((2-(2,3-dihydrobenzo[b] [1,4]dioxin-6-yl)pyrrolidin-1-yl)methyl)phenyl) pyridine] | 1000 to 10000
20 | CS(=O)(=O)c1cccc(-c2ccc(CN3CCCC3c3ccc4c(c3)OCCO4)cc2)c1 (racemic) [Example 44, 2-(2,3-dihydrobenzo[b] [1,4]dioxin-6-yl)-1-((3′-(methylsulfonyl)-[1,1′-biphenyl]-4-yl)methyl)pyrrolidine] | 200 to 1000

Further lines, results first:

Row | IC50 [nM] | Compound
21 | 50 to 200 | Cn1cc(-c2ccc(CN3CCCC3c3ccc4c(c3)OCCO4)cc2)cn1 (racemic) [Example 4, 4-(4-((2-(2,3-dihydrobenzo[b] [1,4]dioxin-6-yl)pyrrolidin-1-yl)methyl)phenyl)-1-methyl-1H-pyrazole]
22 | 50 to 200 | Cn1cc(-c2ccc(CN3CCCC3c3ccc4c(c3)OCCO4)cn2)cn1 (racemic) [Example 5, 5-((2-(2,3-dihydrobenzo[b] [1,4]dioxin-6-yl)pyrrolidin-1-yl)methyl)-2-(1-methyl-1H-pyrazol-4-yl)pyridine]
23 | < 50 | Cn1cc(-c2ccc(CN3CCCC3c3ccc4c(c3)OCC4)cc2)cn1 (racemic) [Example 11, 4-(4-((2-(2,3-dihydrobenzofuran-6-yl)pyrrolidin-1-yl)methyl)phenyl)-1-methyl-1H-pyrazole]
24 | 50 to 200 | Cn1cc(-c2ccc(CN3CCCC3c3ccc4c(c3)OCC4)cn2)cn1 (racemic) [Example 12, 5-((2-(2,3-dihydrobenzofuran-6-yl)pyrrolidin-1-yl)methyl)-2-(1-methyl-1H-pyrazol-4-yl)pyridine]
25 | 50 to 200 | c1cnn(-c2ccc(CN3CCCC3c3ccc4c(c3)OCCO4)cc2)c1 (racemic) [Example 16, 1-(4-((2-(2,3-dihydrobenzo[b] [1,4]dioxin-6-yl)pyrrolidin-1-yl)methyl)phenyl)-1H-pyrazole]
26 | 50 to 200 | c1cncc(-c2ccc(CN3CCCC3c3ccc4c(c3)OCCO4)cc2)c1 (racemic) [Example 30, 3-(4-((2-(2,3-dihydrobenzo[b] [1,4]dioxin-6-yl)pyrrolidin-1-yl)methyl)phenyl) pyridine]
27 | 50 to 200 | Fc1cc(-c2cccnc2)ccc1CN1CCCC1c1ccc2c(c1)OCCO2 (racemic) [Example 32, 3-(4-((2-(2,3-dihydrobenzo[b] [1,4]dioxin-6-yl)pyrrolidin-1-yl)methyl)-3-fluorophenyl)pyridine]
28 | 50 to 200 | c1ncn(-c2ccc(CN3CCCC3c3ccc4c(c3)OCCO4)cc2)n1 (racemic) [Example 34, 1-(4-((2-(2,3-dihydrobenzo[b] [1,4]dioxin-6-yl)pyrrolidin-1-yl)methyl)phenyl)-1H-1,2,4-triazole]
29 | 50 to 200 | Cc1cc(-c2cccnc2)ccc1CN1CCCC1c1ccc2c(c1)OCCO2 (racemic) [Example 38, 3-(4-((2-(2,3-dihydrobenzo[b] [1,4]dioxin-6-yl)pyrrolidin-1-yl)methyl)-3-methylphenyl)pyridine]
30 | 50 to 200 | c1ncc(-c2ccc(CN3CCCC3c3ccc4c(c3)OCCO4)cc2)cn1 (racemic) [Example 39, 5-(4-((2-(2,3-dihydrobenzo[b] [1,4]dioxin-6-yl)pyrrolidin-1-yl)methyl)phenyl)pyrimidine]
